The structures appear in SMILES notation.

The target of assay [1] is T1, rat B1R (bradykinin receptor 1) (Rattus norvegicus, UniProt P97583).
T1 construct: expressed in transfected cells; host or cells: CHO K1 cells
T1 sequence (P97583 1-337): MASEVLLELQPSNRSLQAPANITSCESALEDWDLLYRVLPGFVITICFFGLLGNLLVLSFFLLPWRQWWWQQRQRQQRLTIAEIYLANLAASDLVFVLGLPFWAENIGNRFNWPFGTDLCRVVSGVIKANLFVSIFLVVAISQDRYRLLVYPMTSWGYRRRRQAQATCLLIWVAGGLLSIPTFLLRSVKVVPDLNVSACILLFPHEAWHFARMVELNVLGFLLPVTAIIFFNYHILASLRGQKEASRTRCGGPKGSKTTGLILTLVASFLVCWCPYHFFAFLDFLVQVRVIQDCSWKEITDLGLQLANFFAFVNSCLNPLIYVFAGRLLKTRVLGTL
Description: FLIPR Ca2+ assay (Fluo-4) on CHO K1 cells stably transfected with the B1R gene of the rat (rB1R cells): % inhibition at 10 μM / IC50, agonist Des-Arg9-bradykinin. In kind it is cell-based. The conditions noted are these: CHO-K1, rat B1R. Put shortly: (§1)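 Stable CHO K1 lines, Fluo-4 dye, probenecid-containing buffer. Cpd 10 μM or dose range, 10–20 min, then EC80 agonist (h: Lys-Des-Arg9-BK; r: Des-Arg9-BK). Readout peak FC; % inhibition vs max; IC50 from n=2–3, N≥2.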

The target of assay [2] is T2, human B1R (bradykinin receptor 1) (Homo sapiens, UniProt P46663).
T2 construct: expressed in transfected cells; host or cells: CHO K1 cells
T2 sequence (P46663 1-353): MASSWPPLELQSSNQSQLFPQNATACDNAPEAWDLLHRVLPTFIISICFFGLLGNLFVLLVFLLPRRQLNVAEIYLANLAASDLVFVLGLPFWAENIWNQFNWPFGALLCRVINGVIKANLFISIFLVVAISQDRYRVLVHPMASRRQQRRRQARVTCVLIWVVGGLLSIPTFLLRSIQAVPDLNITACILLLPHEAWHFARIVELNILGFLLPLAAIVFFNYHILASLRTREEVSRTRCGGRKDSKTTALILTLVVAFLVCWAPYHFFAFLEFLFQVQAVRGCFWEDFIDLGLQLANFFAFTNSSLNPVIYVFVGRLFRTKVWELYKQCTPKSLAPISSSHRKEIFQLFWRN
As to the kind of experiment: FLIPR Ca2+ assay (Fluo-4) on CHO K1 cells stably transfected with the human B1R gene (hB1R cells): % inhibition at 10 μM / IC50, agonist Lys-Des-Arg9-bradykinin. The conditions noted are these: CHO-K1, human B1R. In kind it is cell-based. The essentials: as §1

In the case of `O=C(N[C@@H]1CCc2ccc(C(=O)N3CCC4(CCN(c5ccncc5)CC4)C3)cc21)c1c(Cl)cccc1Cl` [Example H-99, 2,6-Dichloro-N-[(1R)-6-(8-pyridin-4-yl-3,8-diazaspiro[4.5]decane-3-carbonyl)-2,3-dihydro-1H-inden-1-yl]-benzamide], the inhibition at 10 µM amounted to 105% in assay [1] and 100% in assay [2].
Consider `CN(C(=O)c1cccc(Cl)c1Cl)C1CCc2ccc(C(=O)N3CCC4(CC3)CCN(c3ccncc3)CC4)cc21` (centres unmarked) [IND_CC-265, 2,3-Dichloro-N-methyl-N-[6-(9-pyridin-4-yl-3,9-diazaspiro[5.5]undecane-3-carbonyl)-2,3-dihydro-1H-inden-1-yl]-benzamide], for which the figures for the inhibition at 10 µM in assay [1] and in assay [2] were 107% and 88%, respectively.
The corresponding values for `COc1ccc(C(=O)NC2CCc3ccc(C(=O)N4CCC5(CCN(c6ccncc6)CC5)C4)cc32)c(Cl)c1` (centres unmarked) [IND_CC-247, 2-Chloro-4-methoxy-N-[6-(8-pyridin-4-yl-2,8-diazaspiro[4.5]decane-2-carbonyl)-2,3-dihydro-1H-inden-1-yl]-benzamide] are 102% and 99%.
The matching figures for `COc1ccc(S(=O)(=O)N[C@@H]2CCc3ccc(C(=O)N4CCC5(CCN(c6ccncc6)CC5)C4)cc32)c(C)c1` [Example H-147, 4-Methoxy-2-methyl-N-[(1R)-6-(8-pyridin-4-yl-3,8-diazaspiro[4.5]decane-3-carbonyl)-2,3-dihydro-1H-inden-1-yl]-benzenesulfonic acid amide]: 104% and 100%.

One may read the inhibition as the relative decrease from the control value, in per cent.

The record behind these values is patent publication US8455475B2 (Gruenenthal GmbH, priority 2009, dated 2013).
